Test results from ChEMBL document CHEMBL6182894, “Design, synthesis, and biological evaluation of quinolinyl-ureido-phenyl-hydrazide derivatives and quinolinyl-hydrazide derivatives as anticancer agents targeting Nur77-mediated ferroptosis” (Eur J Med Chem, 2025).
Active and inactive are the calls of the source. The rule behind the calls is not given here.

How the values were obtained:
[1] = test system: MCF7; experiment: Antitumor activity against human MCF7 cells xenografted in nude BALB/c mouse assessed as increase in Nur77 level in tumor at 10 to 20 mg/kg/day, IG administered on alternative days for 21 days by immunohistochemical analysis; type: functional, organism-based; settings: dose 10-20 mg/kg/day, time 21.0 day
[2] = test system: T47D; experiment: Induction of ferroptosis in human T47D cells assessed as increase in malondialdehyde level at 1.5 to 4.5 uM incubated for 24 hrs by MDA assay; type: functional, cell-based; settings: dose 1.5-4.5 µM
[3] = test system: BT-549; experiment: cells; settings: Homo sapiens, BT-549, 24 h
Description: Antiproliferative activity against human BT-549 cells assessed as inhibition of cell growth incubated for 24 hrs by MTT assay

[4] = Cytotoxicity in human MCF-10A cells assessed as inhibition of cell growth by MTT assay; type: toxicity, cell-based
[5] = test system: MCF7; experiment: Induction of ROS production in Nur77 knockout human MCF7 cells at 3 uM incubated for 24 hrs by DCFH-DA staining based flow cytometric analysis; type: functional, cell-based
[6] = test system: MCF7; experiment: Antiproliferative activity against Nur77 knockout human MCF7 cells at 3 uM incubated for 24 hrs by EdU staining based analysis; type: functional, cell-based
[7] = Cytotoxicity in HaCaT cells assessed as inhibition of cell growth by MTT assay; type: toxicity, cell-based; settings: human
[8] = test system: MCF7; experiment: Induction of ROS production in human MCF7 cells at 3 uM incubated for 24 hrs by DCFH-DA staining based flow cytometric analysis; type: functional, cell-based
[9] = test system: MCF7; experiment: Induction of ferroptosis in human MCF7 cells assessed as increase in malondialdehyde level at 1.5 to 4.5 uM incubated for 24 hrs by MDA assay; type: functional, cell-based; settings: dose 1.5-4.5 µM
[10] = test system: MCF7; experiment: Antitumor activity against human MCF7 cells xenografted in nude BALB/c mouse assessed as decrease in GPX4 level in tumor at 10 to 20 mg/kg/day, IG administered on alternative days for 21 days by immunohistochemical analysis; type: functional, organism-based; settings: dose 10-20 mg/kg/day, time 21.0 day
[11] = test system: MCF7; experiment: Inhibition of colony formation in human MCF7 cells at 4.5 uM incubated for 3 days by crystal violet staining based analysis relative to control; type: functional; settings: MCF7, 72 h, time 3 day
[12] = test system: MCF7; experiment: Upregulation of Nur77 protein expression in human MCF7 cells at 3 to 6 uM measured at 2 hrs by Western blot assay; type: functional, cell-based; settings: dose 3-6 µM
[13] = Half life in nude BALB/c mouse at 20 mg/kg, IG measured after 24 hrs; type: ADME, organism-based; settings: in vivo, po
[14] = test system: MCF7; experiment: Induction of apoptosis in human MCF7 cells assessed as necrotic cells at 3 uM incubated for 24 hrs by Annexin V-FITC/PI staining based flow cytometry analysis (Rvb =0.2%); type: functional
[15] = test system: MCF7; experiment: Induction of apoptosis in human MCF7 cells assessed as viable cells at 3 uM incubated for 24 hrs by Annexin V-FITC/PI staining based flow cytometry analysis (reference value: 98.1%); type: functional; settings: read-out: Activity
[16] = test system: MCF7; experiment: Induction of apoptosis in human MCF7 cells assessed as early apoptotic cells at 6 uM incubated for 24 hrs by Annexin V-FITC/PI staining based flow cytometry analysis (Rvb =0.82%); type: functional
[17] = test system: HepG2; experiment: Antiproliferative activity against human HepG2 cells assessed as inhibition of cell growth by MTT assay
[18] = test system: MCF7; experiment: Induction of ferroptosis in Nur77 knockout human MCF7 cells assessed as […] at 3 uM incubated for 24 hrs by BODIPYTM 581/591C11 probe based flow cytometry analysis; type: functional, cell-based
[19] = test system: T47D; experiment: cells; settings: Homo sapiens, 24 h
Description: Antiproliferative activity against human T47D cells assessed as inhibition of cell growth incubated for 24 hrs by MTT assay

[20] = test system: MCF7; experiment: Induction of apoptosis in human MCF7 cells assessed as viable cells at 6 uM incubated for 24 hrs by Annexin V-FITC/PI staining based flow cytometry analysis (reference value: 98.1%); type: functional; settings: read-out: Activity
[21] = test system: MCF7; experiment: Induction of ferroptosis in human MCF7 cells assessed as effect on SLC7A11 expression at 3 uM incubated for 24 hrs in presence of fer-1 by Western blot analysis; type: functional, cell-based
[22] = test system: MCF7; experiment: Cytotoxicity in Nur77 knockout human MCF7 cells at 1 to 3 uM incubated for 24 hrs by MTT assay; type: functional, cell-based; settings: dose 1-3 µM
[23] = test system: HepG2; experiment: Induction of ferroptosis in human HepG2 cells assessed as decrease in GPX4 expression at 3 uM incubated for 24 hrs by Western blot analysis; type: functional, cell-based
[24] = AUC (0 to infinity) in nude BALB/c mouse at 20 mg/kg, IG measured after 24 hrs; type: ADME, organism-based; settings: in vivo, po
[25] = test system: MCF7; experiment: Antitumor activity against human MCF7 cells xenografted in nude BALB/c mouse assessed as tumor growth inhibition at 20 mg/kg/day, IG administered on alternative days for 21 days relative to control; type: functional; settings: MCF7, po, 504 h, time 21 day, read-out: TGI
[26] = test system: MCF7; experiment: Induction of apoptosis in human MCF7 cells assessed as late apoptotic cells at 6 uM incubated for 24 hrs by Annexin V-FITC/PI staining based flow cytometry analysis (Rvb =0.86%); type: functional
[27] = test system: MCF7; experiment: Anticancer activity in human MCF7 cells assessed as cell viability at 3 uM in presence of DFO by MTT assay; type: functional, cell-based
[28] = test system: MCF7; experiment: Anticancer activity in human MCF7 cells assessed as reduction in cell viability at 3 uM in presence of fer-1 by MTT assay; type: functional, cell-based
[29] = test system: MCF7; experiment: Induction of ferroptosis in Nur77 knockout human MCF7 cells assessed as accumulation of lipid peroxidation at 3 uM incubated for 24 hrs by BODIPYTM 581/591C11 probe based inverted fluorescence microscopic analysis; type: functional, cell-based
[30] = test system: MCF7; experiment: cells; settings: Homo sapiens, MCF7, 24 h
Description: Antiproliferative activity against human MCF7 cells assessed as inhibition of cell growth incubated for 24 hrs by MTT assay

[31] = test system: MCF7; experiment: Induction of apoptosis in human MCF7 cells assessed as early apoptotic cells at 3 uM incubated for 24 hrs by Annexin V-FITC/PI staining based flow cytometry analysis (Rvb =0.82%); type: functional
[32] = Toxicity in nude BALB/c mouse xenografted with human MCF7 cells assessed as appearance of intact hepatic lobules with central veins and cords of radiating hepatocytes at 10 to 20 mg/kg/day, IG administered on alternative days for 21 days by H and E staining analysis; type: organism-based; settings: in vivo, po, 504 h, dose 10-20 mg/kg/day, time 21 day
[33] = test system: MCF7; experiment: Induction of ferroptosis in Nur77 knockout human MCF7 cells assessed as […] incubated for 24 hrs by Western blot analysis; type: functional, cell-based
[34] = test system: MCF7; experiment: Induction of apoptosis in human MCF7 cells assessed as necrotic cells at 6 uM incubated for 24 hrs by Annexin V-FITC/PI staining based flow cytometry analysis (Rvb =0.2%); type: functional
[35] = test system: HCT-116; experiment: Antiproliferative activity against human HCT-116 cells assessed as inhibition of cell growth by MTT assay
[36] = test system: MCF7; experiment: Induction of ferroptosis in human MCF7 cells assessed as decrease in GPX4 expression at 3 uM incubated for 24 hrs in presence of fer-1 by Western blot analysis; type: functional, cell-based
[37] = test system: MCF7; experiment: Induction of ferroptosis in human MCF7 cells assessed as accumulation of lipid peroxidation at 3 uM incubated for 24 hrs by BODIPYTM 581/591C11 probe based inverted fluorescence microscopic analysis; type: functional, cell-based
[38] = test system: MCF7; experiment: Antitumor activity against human MCF7 cells xenografted in nude BALB/c mouse assessed as tumor growth inhibition at 10 mg/kg/day, IG administered on alternative days for 21 days relative to control; type: functional; settings: MCF7, po, 504 h, time 21 day, read-out: TGI
[39] = Toxicity in nude BALB/c mouse xenografted with human MCF7 cells assessed as change in body weight at 10 to 20 mg/kg/day, IG administered on alternative days for 21 days; type: organism-based; settings: in vivo, po, 504 h, dose 10-20 mg/kg/day, time 21 day
[40] = test system: MCF7; experiment: Antiproliferative activity against human MCF7 cells assessed as inhibition of cell growth at 50 uM by MTT assay relative to control; type: functional
[41] = test system: MCF7; experiment: Induction of apoptosis in human MCF7 cells assessed as late apoptotic cells at 3 uM incubated for 24 hrs by Annexin V-FITC/PI staining based flow cytometry analysis (Rvb =0.86%); type: functional
[42] = test system: MCF7; experiment: Upregulation of Nur77 protein expression in human MCF7 cells at 3 uM measured at 2 to 10 hrs by Western blot assay; type: functional, cell-based; settings: time 2-10 hrs
[43] = Cmax in nude BALB/c mouse at 20 mg/kg, IG measured after 24 hrs; type: ADME, organism-based; settings: in vivo, po
[44] = test system: HepG2; experiment: Induction of ferroptosis in Nur77 knockout human HepG2 cells assessed as increase in GPX4 expression at 3 uM incubated for 24 hrs by Western blot analysis; type: functional, cell-based
[45] = test system: MDA-MB-231; experiment: cells; settings: Homo sapiens, MDA-MB-231, 24 h
Description: Antiproliferative activity against human MDA-MB-231 cells assessed as inhibition of cell growth incubated for 24 hrs by MTT assay

- IC50 [3]: 3.93 µM
- half-life [13]: 1.49 h
- IC50 [17]: 2.15 µM
- IC50 [19]: 5.57 µM
- AUC(0-inf) [24]: 58.8 ng·h/mL
- IC50 [30]: 2.3 µM
- IC50 [35]: 3.26 µM
- Cmax [43]: 37.5 ng/mL
- IC50 [45]: 3.14 µM
SMILES: O=C(Nc1ccc(C(=O)N/N=C/c2cccc(Cl)c2)cc1)Nc1ccc2ncccc2c1
- Activity [1]: Active
- Activity [2]: Active
- IC50 [4]: > 50 µM
- Activity [5]: inactive
- Activity [6]: Active; Compound Showed Weak Activity Compared To Wild-Type Cells
- IC50 [7]: > 50 µM
- Activity [8]: Active
- Activity [9]: Active
- Activity [10]: Active
- inhibition at 4.5 µM [11]: 100%
- Activity [12]: Active
- Activity [14]: 0.27%
- viability at 3 µM [15]: 97.3%
- Activity [16]: 1.29%
- Activity [18]: Active
- viability at 6 µM [20]: 94.3%
- Activity [21]: Active
- Activity [22]: Active; Compound Showed Weak Activity Compared To Wild-Type Cells
- Activity [23]: Active
- inhibition in vivo at 20 mg/kg/day [25]: 49%
- Activity [26]: 4.1%
- Activity [27]: Active
- Activity [28]: Active
- Activity [29]: inactive
- Activity [31]: 0.8%
- Activity [32]: Non-toxic
- Activity [33]: Active
- Activity [34]: 0.34%
- Activity [36]: Active
- Activity [37]: Active
- inhibition in vivo at 10 mg/kg/day [38]: 43.5%
- Activity [39]: Non-toxic
- inhibition at 50 µM [40]: 81%
- Activity [41]: 1.65%
- Activity [42]: inactive
- Activity [44]: Active
